“Also recorded” adds a separate entry of the source.
Key:
Type in all cases: cell-based
[1] = tested on: human peripheral blood lymphocytes; test: Proliferation of human PBL/T-cells stimulated with anti-CD3 antibodies, [3H] thymidine incorporation; details: for inhibition of the stimulation (cell proliferation) brought about by the anti-CD3: human PBL, inhibitor 25 to 100 μM, four-day cultivation; for inhibition of the stimulation (cell proliferation) brought about by the anti-CD3 / effect on cell proliferation (cpm, [3H] thymidine incorporation): FIG. 1; for effect on cell proliferation (cpm, [3H] thymidine incorporation): human T-cells, 10 μg/ml soluble anti-CD3 antibodies, inhibitor concentrations above 25 μM
Procedure: For this purpose the T-cells were stimulated with 10 μg/ml soluble anti-CD3 antibodies in the presence of various caspase inhibitors. […] Plotted, the proliferation of the stimulated T-cells (cpm, measured by [^3H] thymidine incorporation) is found as a function of increasing concentrations of caspase inhibitors.
This means that the activity of caspase-8 is significant for the IL-2 production of T-cells. In the experiments on which FIG. 5 is based, PBL were activated with 10 μg/ml soluble anti-CD3 antibody in the presence or absence of zVAD-fink (50 μM) and in the presence of anti-CD3 antibody zVAD-fmk and 500 U/ml recombinant human IL-2, respectively.
For this purpose, the latter were prepared through Ficoll-Hypaque centrifugation. The cells (5×10^4 cells per well) were then cultivated on 96-well plates in the presence of different caspase inhibitors or, for control purposes, in their absence. The concentration of the caspase inhibitors was varied in a range of 25 to 100 μM. Finally, the cells were stimulated through anti-CD3 antibodies (TR66) or through a combined stimulation with anti-CD3 antibodies and soluble recombinant FasL with or without anti-FLAG sequence antibodies 1 μg/ml.
Cell proliferation was measured during the last 18 hours of the four-day cultivation period. The measuring variable for cell proliferation was the incorporation of [^3H] thymidine into the proliferating cells.

caspase-8 = target: T1, caspase-8 (Homo sapiens, UniProt Q14790); test: Western blot of procaspase-8 cleavage in lysates of stimulated human T-lymphocytes; details: anti-CD3 antibody and crosslinked sFasL, 6 hours, IETD-fmk 50 μM; FIG. 6
T1 construct: procaspase-8, 55 kDa fraction, or proteolytically cleaved, active caspase-8, 26 kDa fraction, respectively; endogenous in cells; host or cells: human T-lymphocytes stimulated with anti-CD3 antibody and crosslinked sFasL
Procedure: FIG. 6 provides a Western blot. Human T-cells were cultivated either without stimulation (control), with soluble anti-CD3 antibody alone (3 μg/ml), or with anti-CD3 antibody and sFasL (50 ng/ml) which, as described above, is crosslinked via its FLAG sequence. The cell lysates were examined in accordance with the times shown in FIG. 6, with regard to the expression of procaspase-8 or of cleavage products of the procaspase-8.
In a further experimental approach, T-cells were stimulated with a combination of anti-CD3 antibodies and FasL for a period of 6 hours, namely in the presence of 50 µM of the caspase-8 inhibitor IETD-fmk.
After 0, 2, 4, 6 and 22 hours, cells were taken from the different preparations and lysated. The cell lysates were examined with the Western blot technique with respect to their caspase-8 activity (procaspase-8, 55 kDa fraction, or proteolytically cleaved, active caspase-8, 26 kDa fraction, respectively).

[2] = tested on: IL-2 production of T-lymphocytes; test: IL-2 concentration in supernatants of stimulated T-lymphocytes/PBL, CTLL bioassay; details: FIG. 4; for suppression of IL-2 production: anti-CD3 antibody stimulation (3 μg/ml immobilized), inhibitors 50 µM, supernatants after 24 hours; for IL-2 activity in supernatants / T-cell proliferation as reflected by IL-2 concentration in supernatants: immobilized anti-CD3 antibody (3 μg/ml) with or without crosslinked FasL (50 ng/ml)
Procedure: FIG. 4 illustrates the correlation of IL-2 expression and the use of caspase inhibitors using a bar diagram. […] The findings shown in FIG. 4 are based on experiments in which 106 ^6 PBL/ml were cultivated with immobilized anti-CD3 antibody (3 μg/ml) and FasL ([…]) in the presence or absence of the caspase inhibitors referred to above (50 µM). The supernatants were removed after 24 hours and examined with the help of a CTLL bioassay for their IL-2 concentration.
For this purpose, T-lymphocytes (10^6/ml) were stimulated with immobilized antiCD3 antibody (3 μg/ml) with or without crosslinked FasL (50 ng/ml). The supernatants of these preparations with a caspase inhibitor or without a caspase inhibitor as control were removed after the stimulation period and their respective IL-2 concentration was measured using a CTTL bioassay. The IL-2 concentration in the supernatants reflects the T-cell proliferation.

T1 sequence (Q14790 whole entry): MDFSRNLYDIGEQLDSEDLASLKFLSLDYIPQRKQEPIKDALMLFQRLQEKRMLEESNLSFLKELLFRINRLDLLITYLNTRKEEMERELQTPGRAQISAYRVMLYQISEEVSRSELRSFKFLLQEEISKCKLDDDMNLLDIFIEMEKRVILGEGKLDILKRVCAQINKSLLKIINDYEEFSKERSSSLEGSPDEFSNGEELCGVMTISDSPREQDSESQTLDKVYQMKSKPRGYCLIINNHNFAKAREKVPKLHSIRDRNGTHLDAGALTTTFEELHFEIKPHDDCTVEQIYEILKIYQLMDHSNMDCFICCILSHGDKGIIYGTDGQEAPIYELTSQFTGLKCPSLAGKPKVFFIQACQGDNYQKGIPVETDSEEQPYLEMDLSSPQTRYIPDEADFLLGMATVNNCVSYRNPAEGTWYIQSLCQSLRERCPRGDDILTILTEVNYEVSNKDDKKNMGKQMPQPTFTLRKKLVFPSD

Substance	inhibition of the stimulation (cell proliferation) brought about by the anti-CD3 [1]	effect on cell proliferation (cpm, [3H] thymidine incorporation) [1]	active 26 kDa caspase-8 fraction/band in Western blot (caspase-8)	proteolytic cleavage of caspase-8 during stimulation (caspase-8)	suppression of IL-2 production [2]	IL-2 activity in supernatants [2]	T-cell proliferation as reflected by IL-2 concentration in supernatants [2]	cell proliferation with inhibitor plus exogenous recombinant human IL-2 ([1]; PBL, 10 μg/ml soluble anti-CD3 antibody, zVAD-fmk 50 μM and 500 U/ml IL-2, FIG. 5)	number of cells as against the control ([1]; PBL, 10 μg/ml soluble anti-CD3 antibody, zVAD-fmk 50 μM, FIG. 5)
IETD-fmk	complete inhibition	clear inhibiting effect	cannot be detected; also recorded: does not lead to any 26 kDa band being detected	effectively blocked	particularly effective	only weak	blocks	–	–
zVAD-fmk	complete inhibition; also recorded: partial inhibition	clear inhibiting effect	–	–	particularly effective	only weak	blocks	increases dramatically	clear reduction

From patent US20020086832A1, “Caspase inhibitors for inhibiting blood cell proliferation and for treating autoimmune diseases” (APOTECH RESEARCH AND DEVELOPMENT LTD., priority 1999, published 2002)
